This assay deals with BDF1 mice, B16 melanoma ip, median survival T/C. Briefly: NCI In Vivo Anticancer Drug Screen. Data for tumor model B16 Melanoma (intraperitoneal) in B6D2F1 (BDF1) mice. The note with it: endpoint: median survival time, higher = longer survival. In a few lines:
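Each result divides a survival or tumor-size measurement in the compound-treated group by the same measurement in the vehicle group.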

Setting [1] is: dose: 25.0 mg/kg/injection, schedule: Q01DX009 (ip), vehicle: saline with Tween-80.
Setting [2] is: dose: 50.0 mg/kg/injection, schedule: Q01DX009 (ip), vehicle: saline with Tween-80.
Where [3] appears, read: dose: 100.0 mg/kg/injection, schedule: Q01DX009 (ip), vehicle: saline with Tween-80.
The mark [4] stands for this setting: dose: 200.0 mg/kg/injection, schedule: Q01DX009 (ip), vehicle: saline with Tween-80.
Setting [5] is: dose: 0.25 mg/kg/injection, schedule: Q01DX009 (ip), vehicle: Klucel (hydroxypropylcellulose) (HPC).
The mark [6] stands for this setting: dose: 0.5 mg/kg/injection, schedule: Q01DX009 (ip), vehicle: Klucel (hydroxypropylcellulose) (HPC).
The mark [7] stands for this setting: dose: 6.25 mg/kg/injection, schedule: Q01DX009 (ip), vehicle: saline with Tween-80.
Setting [8] is: dose: 5.0 mg/kg/injection, schedule: Q01DX009 (ip), vehicle: saline with Tween-80.
Where [9] appears, read: dose: 10.0 mg/kg/injection, schedule: Q01DX009 (ip), vehicle: saline with Tween-80.
The mark [10] stands for this setting: dose: 50.0 mg/kg/injection, schedule: Q01DX009 (ip), vehicle: Klucel (hydroxypropylcellulose) (HPC).
Setting [11] is: dose: 100.0 mg/kg/injection, schedule: Q01DX009 (ip), vehicle: Klucel (hydroxypropylcellulose) (HPC).
Setting [12] is: dose: 200.0 mg/kg/injection, schedule: Q01DX009 (ip), vehicle: Klucel (hydroxypropylcellulose) (HPC).
The mark [13] stands for this setting: dose: 400.0 mg/kg/injection, schedule: Q01DX009 (ip), vehicle: Klucel (hydroxypropylcellulose) (HPC).
Setting [14] is: dose: 50.0 mg/kg/injection, schedule: Q04DX003 (ip), vehicle: saline with Tween-80.
The mark [15] stands for this setting: dose: 3.13 mg/kg/injection, schedule: Q01DX009 (ip), vehicle: saline with Tween-80.

Structures are written as SMILES. Several values for one entry are separate records, joined by “and”; a condition that tells them apart may be missing. Equal values may be shown once. Inconclusive results and toxic doses are left out.

Regarding `O=C(NCCCl)N(c1ccccc1)c1cccc(C(F)(F)F)c1`, the T/C by setting is: (dose: 100.0 mg/kg/injection, schedule: Q04DX003 (ip), vehicle: Klucel (hydroxypropylcellulose) (HPC)) 114 % of control; (dose: 200.0 mg/kg/injection, schedule: Q04DX003 (ip), vehicle: Klucel (hydroxypropylcellulose) (HPC)) 105 % of control; (dose: 400.0 mg/kg/injection, schedule: Q04DX003 (ip), vehicle: Klucel (hydroxypropylcellulose) (HPC)) 106 % of control.

Consider `CCCCNC(=S)N/N=C/c1ccccn1`, for which the T/C under setting [1] is 102 % of control, the T/C under setting [2] is 99 % of control and the T/C under setting [3] was 104 % of control.

As to `O=C(NC(Cc1ccccc1)C(=O)NC(Cc1c[nH]c2ccccc12)C(=O)O)OCc1ccccc1` (stereo unspecified), the T/C by setting is: under setting [2], 98 % of control; under setting [3], 100 % of control; under setting [4], 94 % of control.

For the compound `CC1CC(C)CC(C)C(O)/C(C#N)=C/C=C/CC(C2CCCC2C(=O)O)OC(=O)CC(O)C(C)C1` (stereo unspecified), the T/C runs as follows: (dose: 0.12 mg/kg/injection, schedule: Q01DX009 (ip), vehicle: Klucel (hydroxypropylcellulose) (HPC)) 111 % of control; (dose: 0.12 mg/kg/injection, schedule: Q01DX009 (ip), vehicle: saline with Tween-80) 119 % of control; under setting [5], 108 % of control; (dose: 0.25 mg/kg/injection, schedule: Q01DX009 (ip), vehicle: saline with Tween-80) 113 % of control; under setting [6], 110 % of control; (dose: 1.0 mg/kg/injection, schedule: Q01DX009 (ip), vehicle: Klucel (hydroxypropylcellulose) (HPC)) 107 % of control. Also, the T/C (dose: 2.0 mg/kg/injection, schedule: Q01DX009 (ip), vehicle: Klucel (hydroxypropylcellulose) (HPC)) is 105 % of control and the T/C (dose: 4.0 mg/kg/injection, schedule: Q01DX009 (ip), vehicle: Klucel (hydroxypropylcellulose) (HPC)) is 98 % of control.

With `CCNC(=O)OCc1c(COC(=O)NCC)c(-c2ccc(Cl)c(Cl)c2)n2c1CCC2`, the T/C reads like this: under setting [7], 122 % of control; under setting [1], 90 % of control.

For `COC(=O)C12Oc3ccc(-c4ccc5c(c4O)C(=O)C4=CCC(C)C(O)C4(C(=O)OC)O5)c(O)c3C(=O)C1=CCC(C)C2O` (stereo unspecified), the T/C by setting is: (dose: 2.5 mg/kg/injection, schedule: Q01DX009 (ip), vehicle: saline with Tween-80) 97 % of control; under setting [8], 86 % of control and 98 % of control; under setting [9], 88 % of control and 98 % of control.

Turning to `CCOC(=O)CN1CCC(C2(c3cc4ccccc4[nH]3)OCCO2)CC1`, the T/C by setting is: under setting [10], 105 % of control; under setting [11], 93 % of control; under setting [12], 99 % of control.

Turning to `CCC(C(C)N1CC(=O)NC(=O)C1)N1CC(=O)NC(=O)C1` (stereo unspecified), the T/C reads like this: (dose: 0.06 mg/kg/injection, schedule: Q01DX009 (ip), vehicle: Klucel (hydroxypropylcellulose) (HPC)) 107 % of control; (dose: 0.13 mg/kg/injection, schedule: Q01DX009 (ip), vehicle: Klucel (hydroxypropylcellulose) (HPC)) 108 % of control; under setting [5], 109 % of control and 124 % of control; (dose: 0.25 mg/kg/injection, schedule: Q04DX003 (ip), vehicle: Klucel (hydroxypropylcellulose) (HPC)) 105 % of control; under setting [6], 120 % of control; (dose: 0.5 mg/kg/injection, schedule: Q04DX003 (ip), vehicle: Klucel (hydroxypropylcellulose) (HPC)) 114 % of control. Further, the T/C was 115 % of control and 121 % of control (dose: 1.0 mg/kg/injection, schedule: Q04DX003 (ip), vehicle: Klucel (hydroxypropylcellulose) (HPC)); 156 % of control (dose: 8.0 mg/kg/injection, schedule: Q04DX003 (ip), vehicle: Klucel (hydroxypropylcellulose) (HPC)).

`CCCCCCCCCC(=O)CC`: the T/C runs as follows: under setting [10], 100 % of control; under setting [11], 99 % of control; under setting [12], 100 % of control.

Regarding `CCOC(=O)C(NC(=O)C(Cc1ccc(N(CCCl)CCCl)cc1)NC(C)=O)C(C)C` (stereo unspecified), the T/C was 99 % of control (dose: 1.56 mg/kg/injection, schedule: Q01DX009 (ip), vehicle: saline); 98 % of control (dose: 3.13 mg/kg/injection, schedule: Q01DX009 (ip), vehicle: saline); 102 % of control (dose: 6.25 mg/kg/injection, schedule: Q01DX009 (ip), vehicle: saline); 105 % of control (dose: 12.5 mg/kg/injection, schedule: Q04DX003 (ip), vehicle: saline); 97 % of control (dose: 25.0 mg/kg/injection, schedule: Q04DX003 (ip), vehicle: saline); 102 % of control (dose: 50.0 mg/kg/injection, schedule: Q04DX003 (ip), vehicle: saline).

As for `CCCCCCC(=O)C(CCCC)(C(=O)OCC)C(=O)OCC`, under setting [11], the T/C is 89 % of control.

With `NC1=NN(c2ccccc2)CC1`, the T/C reads like this: (dose: 0.5 mg/kg/injection, schedule: Q04DX003 (ip), vehicle: saline with Tween-80) 95 % of control; under setting [8], 104 % of control; under setting [9], 100 % of control; (dose: 10.0 mg/kg/injection, schedule: Q04DX003 (ip), vehicle: saline with Tween-80) 95 % of control; (dose: 20.0 mg/kg/injection, schedule: Q01DX009 (ip), vehicle: saline with Tween-80) 100 % of control; (dose: 20.0 mg/kg/injection, schedule: Q04DX003 (ip), vehicle: saline with Tween-80) 95 % of control.

On to `Cc1cccc(C)c1NC(=O)NC(C)C`, for which the T/C is 87 % of control under setting [11], 115 % of control under setting [12] and 118 % of control under setting [13].

Consider `O=C(O)CC(Br)C(=O)c1ccccc1` (stereo unspecified), for which the T/C runs as follows: (dose: 12.5 mg/kg/injection, schedule: Q04DX003 (ip), vehicle: saline with Tween-80) 93 % of control; (dose: 25.0 mg/kg/injection, schedule: Q04DX003 (ip), vehicle: saline with Tween-80) 86 % of control; under setting [14], 88 % of control.

With `Cc1ccc(NC(=O)COc2ccc(Cl)cc2)c(C)c1`, the T/C under setting [15] is 119 % of control; the T/C under setting [7] was 107 % of control; the T/C (dose: 12.5 mg/kg/injection, schedule: Q01DX009 (ip), vehicle: saline with Tween-80) was 97 % of control; the T/C under setting [1] was 95 % of control; the T/C under setting [2] was 91 % of control.

Regarding `NC(=O)NC1CCCCCCC1`, the T/C under setting [3] was 100 % of control; the T/C under setting [4] is 93 % of control; the T/C (dose: 400.0 mg/kg/injection, schedule: Q01DX009 (ip), vehicle: saline with Tween-80) is 104 % of control.

On to `CCCC1CC[N-]CC1.CCCC1CC[N-]CC1.CCCC1CC[N-]CC1.CCCC1CC[N-]CC1.[Cl][Rh][Cl]`, for which the T/C was 104 % of control (dose: 0.37 mg/kg/injection, schedule: Q01DX009 (ip), vehicle: Klucel (hydroxypropylcellulose) (HPC)); 102 % of control (dose: 0.75 mg/kg/injection, schedule: Q01DX009 (ip), vehicle: Klucel (hydroxypropylcellulose) (HPC)); 100 % of control (dose: 1.5 mg/kg/injection, schedule: Q01DX009 (ip), vehicle: Klucel (hydroxypropylcellulose) (HPC)); 109 % of control (dose: 1.56 mg/kg/injection, schedule: Q01DX009 (ip), vehicle: saline with Tween-80); 116 % of control under setting [15]; 98 % of control under setting [7].

For `OCC1OC(n2cnc3cncnc32)C(O)C1O` (stereo unspecified), for the setting “dose: 12.5 mg/kg/injection, schedule: Q01DX009 (ip), vehicle: saline”, the T/C is 115 % of control.

As to `Cc1cc(O)c(C)c(C)c1Cl`, the T/C was 100 % of control under setting [1]; 97 % of control under setting [2]; 92 % of control under setting [14]; 97 % of control under setting [3]; 95 % of control (dose: 100.0 mg/kg/injection, schedule: Q04DX003 (ip), vehicle: saline with Tween-80).

With `c1ccc(N/N=C2/c3ccccc3CC23OC3c2ccccc2)cc1` (stereo unspecified), the T/C is 87 % of control under setting [10], 96 % of control under setting [11] and 89 % of control under setting [13].

Regarding `CN(C)[C@@H]1C(=O)C(C(=O)NCN(CCCl)CCCl)=C(O)[C@@]2(O)C(=O)C3=C(O)c4c(O)cccc4[C@@](C)(O)[C@H]3C[C@@H]12`, the T/C is 98 % of control (dose: 3.13 mg/kg/injection, schedule: Q01DX009 (ip), vehicle: Klucel (hydroxypropylcellulose) (HPC)); 113 % of control (dose: 6.25 mg/kg/injection, schedule: Q01DX009 (ip), vehicle: Klucel (hydroxypropylcellulose) (HPC)); 97 % of control (dose: 25.0 mg/kg/injection, schedule: Q01DX009 (ip), vehicle: Klucel (hydroxypropylcellulose) (HPC)).
